Results from ChEMBL document CHEMBL5390317, “Novel Indane-Containing NBTIs with Potent Anti-Gram-Negative Activity and Minimal hERG Inhibition” (ACS Med Chem Lett, 2023).
≈ marks a conversion by molar mass, not a printed value.

Columns and labels:
Pseudomonas aeruginosa [1] = assay: Antibacterial activity against Pseudomonas aeruginosa NCTC 13437 assessed as inhibition in bacterial growth incubated for 20 to 24 hrs by CLSI based broth microdilution method; format: functional; conditions: Pseudomonas aeruginosa, NCTC 13437, time 20-24 hrs; read-out: MIC
hERG (KCNH2) [2] = molecular target: T1, hERG (KCNH2) (Homo sapiens, UniProt Q12809); assay: Inhibition of hERG potassium channel expressed in CHO cells at 10 uM by electrophysiological patch clamp assay relative to control; format: toxicity, cell-based; conditions: CHO cells expressing hERG
T1 sequence (Q12809 whole entry): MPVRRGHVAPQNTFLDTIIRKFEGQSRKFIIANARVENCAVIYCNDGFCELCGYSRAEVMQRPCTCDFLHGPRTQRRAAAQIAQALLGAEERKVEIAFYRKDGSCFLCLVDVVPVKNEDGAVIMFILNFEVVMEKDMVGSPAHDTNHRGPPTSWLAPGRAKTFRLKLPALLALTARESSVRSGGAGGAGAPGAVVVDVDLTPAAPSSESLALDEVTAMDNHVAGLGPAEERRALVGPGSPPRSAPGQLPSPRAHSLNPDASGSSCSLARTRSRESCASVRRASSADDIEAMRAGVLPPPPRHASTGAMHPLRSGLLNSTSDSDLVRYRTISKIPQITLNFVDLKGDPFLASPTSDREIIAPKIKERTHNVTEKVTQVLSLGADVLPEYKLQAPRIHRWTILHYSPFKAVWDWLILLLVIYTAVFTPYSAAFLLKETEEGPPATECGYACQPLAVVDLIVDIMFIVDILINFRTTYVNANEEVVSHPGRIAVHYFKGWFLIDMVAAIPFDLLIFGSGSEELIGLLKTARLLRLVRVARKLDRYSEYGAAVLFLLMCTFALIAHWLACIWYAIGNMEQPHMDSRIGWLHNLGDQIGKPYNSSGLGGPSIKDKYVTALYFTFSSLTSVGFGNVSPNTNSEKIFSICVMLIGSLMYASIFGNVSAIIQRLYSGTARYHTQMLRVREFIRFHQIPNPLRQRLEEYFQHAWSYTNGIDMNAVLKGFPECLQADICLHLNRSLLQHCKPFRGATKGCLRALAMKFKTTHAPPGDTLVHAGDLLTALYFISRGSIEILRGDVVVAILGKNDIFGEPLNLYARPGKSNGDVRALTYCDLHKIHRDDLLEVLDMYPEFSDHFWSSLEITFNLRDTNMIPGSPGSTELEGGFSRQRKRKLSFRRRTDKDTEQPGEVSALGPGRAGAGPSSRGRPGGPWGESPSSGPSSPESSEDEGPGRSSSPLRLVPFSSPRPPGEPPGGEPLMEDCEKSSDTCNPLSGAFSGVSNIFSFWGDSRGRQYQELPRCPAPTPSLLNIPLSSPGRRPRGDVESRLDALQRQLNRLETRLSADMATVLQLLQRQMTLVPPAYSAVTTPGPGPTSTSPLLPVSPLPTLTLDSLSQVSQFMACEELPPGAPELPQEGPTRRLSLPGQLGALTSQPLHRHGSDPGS

[3] = Stability in mouse plasma assessed as parent compound remaining after 5 hrs relative to control; format: ADME, cell-free; conditions: read-out: Stability
Escherichia coli [4] = assay: Antibacterial activity against Escherichia coli ATCC BAA-2340 assessed as inhibition in bacterial growth incubated for 20 to 24 hrs by CLSI based broth microdilution method; format: functional; conditions: Escherichia coli, ATCC BAA-2340, time 20-24 hrs; read-out: MIC
Staphylococcus aureus [5] = assay: Antibacterial activity against Staphylococcus aureus ATCC BAA-1556 assessed as inhibition in bacterial growth incubated for 20 to 24 hrs by CLSI based broth microdilution method; format: functional; conditions: Staphylococcus aureus, ATCC BAA-1556, time 20-24 hrs; read-out: MIC
Acinetobacter baumannii [6] = assay: Antibacterial activity against Acinetobacter baumannii ATCC 19606 assessed as inhibition in bacterial growth incubated for 20 to 24 hrs by CLSI based broth microdilution method; format: functional; conditions: time 20-24 hrs
[7] = Inhibition of Escherichia coli topoisomerase 4 incubated for 120 mins by Transcreener ADP2 FI assay
Acinetobacter baumannii [8] = assay: Antibacterial activity against Acinetobacter baumannii ATCC BAA-747 assessed as inhibition in bacterial growth incubated for 20 to 24 hrs by CLSI based broth microdilution method; format: functional; conditions: Acinetobacter baumannii, ATCC BAA-747, time 20-24 hrs; read-out: MIC
Escherichia coli [9] = assay: Antibacterial activity against Escherichia coli K-12 BW25113 assessed as inhibition in bacterial growth incubated for 20 to 24 hrs by CLSI based broth microdilution method; format: functional; conditions: Escherichia coli, K-12 BW25113, time 20-24 hrs; read-out: MIC
[10] = molecular target: Voltage-gated inwardly rectifying potassium channel KCNH2 (Homo sapiens, UniProt Q12809); assay: (§1) Inhibition of hERG potassium channel expressed in CHO cells by electrophysiological patch clamp assay; format: toxicity, cell-based
Sequence of Voltage-gated inwardly rectifying potassium channel KCNH2 (Q12809 whole entry): as above

hERG (KCNH2) [11] = molecular target: T1, hERG (KCNH2); assay: as §1; format: toxicity, cell-based; conditions: human, CHO cells expressing hERG
Pseudomonas aeruginosa [12] = assay: Antibacterial activity against Pseudomonas aeruginosa NCTC 11451 assessed as inhibition in bacterial growth incubated for 20 to 24 hrs by CLSI based broth microdilution method; format: functional; conditions: Pseudomonas aeruginosa, NCTC 11451, time 20-24 hrs; read-out: MIC
DNA gyrase = DNA gyrase (Escherichia coli, UniProt P0AES4+P0AES6); assay: Inhibition of Escherichia coli DNA gyrase incubated for 80 mins by Transcreener ADP2 FI assay; format: protein-complex assay
Escherichia coli [13] = assay: Antibacterial activity against Escherichia coli ATCC 35218 assessed as inhibition in bacterial growth incubated for 20 to 24 hrs by CLSI based broth microdilution method; format: functional; conditions: Escherichia coli, ATCC 35218, time 20-24 hrs; read-out: MIC
Acinetobacter baumannii [14] = assay: Antibacterial activity against Acinetobacter baumannii ATCC 51432 assessed as inhibition in bacterial growth incubated for 20 to 24 hrs by CLSI based broth microdilution method; format: functional; conditions: Acinetobacter baumannii, ATCC 51432, time 20-24 hrs; read-out: MIC
Klebsiella pneumoniae [15] = assay: Antibacterial activity against Klebsiella pneumoniae ATCC BAA-2146 assessed as inhibition in bacterial growth incubated for 20 to 24 hrs by CLSI based broth microdilution method; format: functional; conditions: Klebsiella pneumoniae, ATCC BAA-2146, time 20-24 hrs; read-out: MIC
Klebsiella pneumoniae [16] = assay: Antibacterial activity against Klebsiella pneumoniae ATCC 700603 assessed as inhibition in bacterial growth incubated for 20 to 24 hrs by CLSI based broth microdilution method; format: functional; conditions: Klebsiella pneumoniae, ATCC 700603, time 20-24 hrs; read-out: MIC
Pseudomonas aeruginosa [17] = assay: Antibacterial activity against Pseudomonas aeruginosa ATCC 27853 assessed as inhibition in bacterial growth incubated for 20 to 24 hrs by CLSI based broth microdilution method; format: functional; conditions: time 20-24 hrs
hERG (KCNH2) [18] = molecular target: T1, hERG (KCNH2); assay: Inhibition of hERG potassium channel expressed in CHO cells at 1 uM by electrophysiological patch clamp assay relative to control; format: toxicity, cell-based; conditions: CHO cells expressing hERG
Klebsiella pneumoniae [19] = assay: Antibacterial activity against Klebsiella pneumoniae ATCC 10031 assessed as inhibition in bacterial growth incubated for 20 to 24 hrs by CLSI based broth microdilution method; format: functional; conditions: time 20-24 hrs
Escherichia coli [20] = assay: Antibacterial activity against Escherichia coli K-12 BW25113 deltaTolC assessed as inhibition in bacterial growth incubated for 20 to 24 hrs by CLSI based broth microdilution method; format: functional; conditions: time 20-24 hrs
Klebsiella pneumoniae [21] = assay: Antibacterial activity against Klebsiella pneumoniae ATCC BAA-1705 assessed as inhibition in bacterial growth incubated for 20 to 24 hrs by CLSI based broth microdilution method; format: functional; conditions: time 20-24 hrs
Escherichia coli [22] = assay: Antibacterial activity against Escherichia coli ATCC 25922 assessed as inhibition in bacterial growth incubated for 20 to 24 hrs by CLSI based broth microdilution method; format: functional; conditions: time 20-24 hrs
Staphylococcus aureus [23] = assay: Antibacterial activity against Staphylococcus aureus ATCC 29213 assessed as inhibition in bacterial growth incubated for 20 to 24 hrs by CLSI based broth microdilution method; format: functional; conditions: Staphylococcus aureus, ATCC 29213; time 20-24 hrs; read-out: MIC
[24] = Stability in rat plasma; format: ADME, cell-free
[25] = Stability in rat plasma assessed as parent compound remaining after 5 hrs relative to control; format: ADME, cell-free; conditions: read-out: Stability
[26] = Stability in mouse plasma; format: ADME, cell-free
[27] = Stability in human plasma assessed as parent compound remaining after 5 hrs relative to control; format: ADME, cell-free; conditions: read-out: Stability
[28] = Stability in human plasma; format: ADME, cell-free
[29] = Lipophilicity, log D of compound at pH 7.4; format: physicochemical; conditions: buffer

Row | Structure (SMILES) | MIC (Pseudomonas aeruginosa [1]) [µg/mL] | inhibition at 10 µM (hERG (KCNH2) [2]) [%] | MIC (Escherichia coli [4]) [µg/mL] | MIC (Staphylococcus aureus [5]) [µg/mL] | MIC (Acinetobacter baumannii [6]) [µg/mL] | IC50 [7] [nM] | MIC (Acinetobacter baumannii [8]) [µg/mL] | MIC (Escherichia coli [9]) [µg/mL] | MIC (Pseudomonas aeruginosa [12]) [µg/mL] | IC50 (DNA gyrase) [nM] | MIC (Escherichia coli [13]) [µg/mL] | MIC (Acinetobacter baumannii [14]) [µg/mL] | MIC (Klebsiella pneumoniae [15]) [µg/mL] | MIC (Klebsiella pneumoniae [16]) [µg/mL] | MIC (Pseudomonas aeruginosa [17]) [µg/mL] | MIC (Klebsiella pneumoniae [19]) [µg/mL] | MIC (Escherichia coli [20]) [µg/mL] | MIC (Klebsiella pneumoniae [21]) [µg/mL] | MIC (Escherichia coli [22]) [µg/mL] | MIC (Staphylococcus aureus [23]) [µg/mL] | further results
1 | O=C(CN1CCC1)Nc1cc(F)c2c(c1)CC(CNCCC1CN(c3cnc4c(n3)NC(=O)CO4)C(=O)O1)C2 (configuration not stated) | 1 (≈ 1.85 µM) | < 1 | 0.125 (≈ 0.232 µM) | 2 (≈ 3.71 µM) | 8 (≈ 14.8 µM) | 6 | 0.125 (≈ 0.232 µM) | ≤ 0.06 | 1 (≈ 1.85 µM) | 14 | 0.125 (≈ 0.232 µM) | 8 (≈ 14.8 µM) | 4 (≈ 7.41 µM) | 1 (≈ 1.85 µM) | 0.25 (≈ 0.463 µM) | ≤ 0.06 | ≤ 0.06 | 1 (≈ 1.85 µM) | 0.125 (≈ 0.232 µM) | 1 (≈ 1.85 µM) | remaining at 5 h [3]: 10%; IC50 [10]: > 20000 nM; IC20 (hERG (KCNH2) [11]): > 10000 nM; inhibition at 1 µM (hERG (KCNH2) [18]): < 1%
2 | CN(C)CC(=O)Nc1cc(F)c2c(c1)CC(CNCCC1CN(c3cnc4c(n3)NC(=O)CO4)C(=O)O1)C2 (configuration not stated) | 2 (≈ 3.79 µM) | < 1 | 0.125 (≈ 0.237 µM) | 1 (≈ 1.9 µM) | 8 (≈ 15.2 µM) | 3 | 0.25 (≈ 0.474 µM) | ≤ 0.06 | 2 (≈ 3.79 µM) | 26 | 0.125 (≈ 0.237 µM) | 16 (≈ 30.3 µM) | 4 (≈ 7.58 µM) | 2 (≈ 3.79 µM) | 0.5 (≈ 0.948 µM) | ≤ 0.06 | ≤ 0.06 | 2 (≈ 3.79 µM) | 0.125 (≈ 0.237 µM) | 0.5 (≈ 0.948 µM) | Stability [24]: Unstable; remaining at 5 h [25]: 99%; Stability [26]: Unstable; IC50 [10]: > 20000 nM; IC20 (hERG (KCNH2) [11]): > 10000 nM; remaining at 5 h [27]: 76%; Stability [28]: Unstable; inhibition at 1 µM (hERG (KCNH2) [18]): < 1%
3 | CN(C)C(C)(C)C(=O)Nc1cc(F)c2c(c1)CC(CNCCC1CN(c3cnc4c(n3)NC(=O)CO4)C(=O)O1)C2 (configuration not stated) | 4 (≈ 7.2 µM) | 57 | 0.25 (≈ 0.45 µM) | 0.25 (≈ 0.45 µM) | 2 (≈ 3.6 µM) | 13 | ≤ 0.06 | ≤ 0.06 | 4 (≈ 7.2 µM) | 43 | 0.25 (≈ 0.45 µM) | 4 (≈ 7.2 µM) | 4 (≈ 7.2 µM) | 4 (≈ 7.2 µM) | 1 (≈ 1.8 µM) | ≤ 0.06 | ≤ 0.06 | 2 (≈ 3.6 µM) | 0.125 (≈ 0.225 µM) | ≤ 0.06 | Stability [24]: Stable; Stability [26]: Stable; IC50 [10]: 8200 nM; IC20 (hERG (KCNH2) [11]): 3000 nM; Stability [28]: Stable; inhibition at 1 µM (hERG (KCNH2) [18]): 5%
4 | CC(N)COc1cc(F)c2c(c1)CC(CCOCC1CN(c3cnc4c(n3)NC(=O)CO4)C(=O)O1)C2 (configuration not stated) | 32 (≈ 63.8 µM) | – | 16 (≈ 31.9 µM) | 1 (≈ 1.99 µM) | 8 (≈ 16 µM) | 27 | 4 (≈ 7.98 µM) | 4 (≈ 7.98 µM) | 64 (≈ 128 µM) | 170 | 8 (≈ 16 µM) | 8 (≈ 16 µM) | 64 (≈ 128 µM) | 64 (≈ 128 µM) | 8 (≈ 16 µM) | 0.125 (≈ 0.249 µM) | ≤ 0.06 | 64 (≈ 128 µM) | 8 (≈ 16 µM) | 0.25 (≈ 0.498 µM) | logD [29]: 0.22
5 | C[C@H](C(=O)Nc1cc(F)c2c(c1)CC(CNCCC1CN(c3cnc4c(n3)NC(=O)CO4)C(=O)O1)C2)N(C)C (stereo in doubt; 2e) | 2 (≈ 3.69 µM) | < 1 | 0.25 (≈ 0.462 µM) | 0.5 (≈ 0.923 µM) | 4 (≈ 7.39 µM) | 8 | 0.125 (≈ 0.231 µM) | ≤ 0.06 | 2 (≈ 3.69 µM) | 38 | 0.25 (≈ 0.462 µM) | 8 (≈ 14.8 µM) | 16 (≈ 29.5 µM) | 2 (≈ 3.69 µM) | 1 (≈ 1.85 µM) | ≤ 0.06 | ≤ 0.06 | 2 (≈ 3.69 µM) | 0.125 (≈ 0.231 µM) | 0.25 (≈ 0.462 µM) | Stability [24]: Stable; Stability [26]: Stable; IC50 [10]: > 20000 nM; IC20 ([10]; human, cho): > 10000 nM; Stability [28]: Stable; inhibition at 1 µM (hERG (KCNH2) [18]): < 1%
6 | CC(C)(N)COc1cc(C#N)c2c(c1)CC(CNCCC1CN(c3ccc4c(n3)NC(=O)CO4)C(=O)O1)C2 (configuration not stated) | 0.5 (≈ 0.96 µM) | 11 | 0.125 (≈ 0.24 µM) | 0.25 (≈ 0.48 µM) | 8 (≈ 15.4 µM) | 23 | 0.25 (≈ 0.48 µM) | ≤ 0.06 | 1 (≈ 1.92 µM) | 16 | 0.25 (≈ 0.48 µM) | 8 (≈ 15.4 µM) | 4 (≈ 7.68 µM) | 4 (≈ 7.68 µM) | ≤ 0.06 | ≤ 0.06 | ≤ 0.06 | 2 (≈ 3.84 µM) | 0.25 (≈ 0.48 µM) | 0.125 (≈ 0.24 µM) | IC50 [10]: > 20000 nM; IC20 (hERG (KCNH2) [11]): > 10000 nM; inhibition at 1 µM (hERG (KCNH2) [18]): 3.5%
